Data on six molecules can be found in PMC10830516 (Current Research in Structural Biology, 2024).

One experiment deals with PMII. As to conditions: cited from earlier work.
Another experiment concerns the target plasmepsin II (PMII) (Plasmodium falciparum, UniProt P46925). Nature of the experiment: Inhibition of PMII hydrolysis of Hb-based fluorogenic peptide substrate. The format is biochemical, P. falciparum.
Another experiment concerns the target plasmepsin X (PMX) (Plasmodium falciparum, UniProt Q8IAS0). The experiment can be described thus: Inhibition of PMX hydrolysis of Rh2N fluorogenic peptide substrate. The format is biochemical, P. falciparum. As to conditions: Ki against PMX, mature PMX, pH 5.5, 1 μM Rh2N substrate; Ki by Cheng-Prusoff.

Square brackets hold non-standard residues; d marks the D form. Peptide text beside a SMILES is read from it. * marks the point of attachment. Sta = CC(C)C[C@H](N)[C@@H](O)CC(=O)O; Isovaleryl = CC(C)CC(=O)*

Chain of plasmepsin X (PMX) (Q8IAS0 235-573): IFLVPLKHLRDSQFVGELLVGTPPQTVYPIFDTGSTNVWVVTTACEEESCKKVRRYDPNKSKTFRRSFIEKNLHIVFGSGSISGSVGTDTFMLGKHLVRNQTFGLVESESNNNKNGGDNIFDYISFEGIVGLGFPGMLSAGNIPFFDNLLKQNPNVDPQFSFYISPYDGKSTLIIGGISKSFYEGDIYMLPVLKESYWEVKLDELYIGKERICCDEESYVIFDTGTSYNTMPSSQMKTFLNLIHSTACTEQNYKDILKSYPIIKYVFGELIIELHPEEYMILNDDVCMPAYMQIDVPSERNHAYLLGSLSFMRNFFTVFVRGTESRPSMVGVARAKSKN
Chain of plasmepsin II (PMII) (P46925 125-453): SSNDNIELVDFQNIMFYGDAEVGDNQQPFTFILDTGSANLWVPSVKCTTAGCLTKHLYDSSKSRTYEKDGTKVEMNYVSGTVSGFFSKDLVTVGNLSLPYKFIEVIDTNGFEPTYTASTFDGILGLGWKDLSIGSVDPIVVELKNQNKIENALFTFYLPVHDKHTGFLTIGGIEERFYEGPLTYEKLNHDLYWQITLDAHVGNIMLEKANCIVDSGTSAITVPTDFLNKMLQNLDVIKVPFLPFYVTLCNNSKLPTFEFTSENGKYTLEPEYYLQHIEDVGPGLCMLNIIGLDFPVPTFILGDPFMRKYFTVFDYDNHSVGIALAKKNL

As to `CC(C)CC(=O)N[C@H](C(=O)N[C@H](C(=O)N[C@@H](CC(C)C)[C@@H](O)CC(=O)N[C@@H](C)C(=O)N[C@@H](CC(C)C)[C@@H](O)CC(=O)O)C(C)C)C(C)C` [pepstatin A] (Isovaleryl-VV[Sta]A[Sta]-OH), on PMII (PMII complex PDB ID 1XDH, ref Silva et al., 1996), the Ki (as a rule, a measure of affinity in units of concentration, obtained from inhibition or displacement) was 6 pM.
For `CC(C)(C)NC(=O)[C@@H]1CN(Cc2cccnc2)CCN1C[C@@H](O)C[C@@H](Cc1ccccc1)C(=O)N[C@H]1c2ccccc2C[C@H]1O` [IDV, Indinavir], the inhibition constant (Ki) on plasmepsin II (PMII) is 2.4 µM.
Regarding `Cc1c(O)cccc1C(=O)N[C@@H](CSc1ccccc1)[C@H](O)CN1C[C@H]2CCCC[C@H]2C[C@H]1C(=O)NC(C)(C)C` [NFV, Nelfinavir], the Ki on plasmepsin II (PMII) was 1.4 µM; at plasmepsin X (PMX) it was 60 µM.
Turning to `Cc1cccc(C)c1OCC(=O)N[C@@H](Cc1ccccc1)[C@@H](O)C[C@H](Cc1ccccc1)NC(=O)[C@H](C(C)C)N1CCCNC1=O` [LPV, Lopinavir], the inhibition constant Ki at plasmepsin II (PMII) amounted to 0.7 µM; on plasmepsin X (PMX), 14 µM.
Taken in the same sequence, the figures for `CC(C)(C)NC(=O)[C@@H]1C[C@@H]2CCCC[C@@H]2CN1C[C@@H](O)[C@H](Cc1ccccc1)NC(=O)[C@H](CC(N)=O)NC(=O)c1ccc2ccccc2n1` [SQV, Saquinavir] were 1 µM and 44 µM.
Take `CCCCCc1ccc(C(=O)N(Cc2ccc(-c3ccc(C(=O)N4CCCCC4)cc3)cc2)C2CCN(Cc3ccccn3)CC2)nc1` [2IGX]: the IC50 (usually the concentration needed to halve the response being measured) with PMII (achiral inhibitors, ref Boss et al., 2006, Prade et al., 2005) is 0.054 µM.
